Experimental data from ChEMBL document CHEMBL1147758, “4-hydroxyisoleucine an unusual amino acid as antidyslipidemic and antihyperglycemic agent” (2006).

Columns and labels:
Format in all cases: functional, Mesocricetus auratus
Syrian golden hamster [1] = experiment: Lowering of total cholesterol level in dyslipidemic male syrian hamsters at 50 mg/kg, po
Syrian golden hamster [2] = experiment: Increase in HDL-cholesterol in dyslipidemic male syrian hamsters at 50 mg/kg, po
Syrian golden hamster [3] = experiment: Lowering of glycerol in dyslipidemic male syrian hamsters at 50 mg/kg, po
Syrian golden hamster [4] = experiment: Lowering of free fatty acids in dyslipidemic male syrian hamsters at 50 mg/kg, po
Syrian golden hamster [5] = experiment: Lowering of plasma triglyceride level in dyslipidemic male syrian hamsters at 50 mg/kg, po
Syrian golden hamster [6] = experiment: Increase in ratio between HDL-cholesterol and total cholesterol in dyslipidemic male syrian hamsters at 50 mg/kg, po

SMILES: C[C@@H]([C@H](C)O)[C@H](N)C(=O)O
- Activity (Syrian golden hamster [1]): 22%
- Activity (Syrian golden hamster [2]): 8.7%
- Activity (Syrian golden hamster [3]): 4.9%
- Activity (Syrian golden hamster [4]): 14%
- Activity (Syrian golden hamster [5]): 33%
- Ratio (Syrian golden hamster [6]): 39%
